Key:
[1] = molecular target: Serine/threonine-protein kinase 32B (Homo sapiens) (UniProt Q9NY57); conditions: Compound concentration 1000.0 nM
[2] = test system: Serine/threonine-protein kinase B-raf (Homo sapiens), P15056 [V600E]; conditions: Compound concentration 1000.0 nM
[3] = test system: Tyrosine-protein kinase ABL1 (Homo sapiens), P00519 [T315I]; conditions: Compound concentration 1000.0 nM
[4] = molecular target: Serine/threonine-protein kinase WNK1 (Homo sapiens) (UniProt Q9H4A3); conditions: Compound concentration 1000.0 nM
[5] = molecular target: Tyrosine-protein kinase SYK (Homo sapiens) (UniProt P43405); conditions: Compound concentration 1000.0 nM
[6] = molecular target: 5-hydroxytryptamine receptor 1E (Homo sapiens) (UniProt P28566); conditions: Compound concentration 10.0 uM
[7] = test system: Tyrosine-protein kinase ABL1 (Homo sapiens), P00519 [F317I]; conditions: Compound concentration 1000.0 nM
[8] = molecular target: Protein kinase C delta type (Homo sapiens) (UniProt Q05655); conditions: Compound concentration 1000.0 nM
[9] = molecular target: Cyclin-dependent kinase 2 homolog (Plasmodium falciparum (isolate 3D7)) (UniProt P61075); conditions: Compound concentration 1000.0 nM
[10] = molecular target: Serine/threonine-protein kinase ICK (Homo sapiens) (UniProt Q9UPZ9); conditions: Compound concentration 1000.0 nM
[11] = molecular target: NUAK family SNF1-like kinase 2 (Homo sapiens) (UniProt Q9H093); conditions: Compound concentration 1000.0 nM
[12] = molecular target: Serine/threonine-protein kinase PAK 4 (Homo sapiens) (UniProt O96013); conditions: Compound concentration 1000.0 nM
[13] = molecular target: Dual specificity mitogen-activated protein kinase kinase 5 (Homo sapiens) (UniProt Q13163); conditions: Compound concentration 1000.0 nM
[14] = molecular target: Phosphatidylinositol 5-phosphate 4-kinase type-2 gamma (Homo sapiens) (UniProt Q8TBX8); conditions: Compound concentration 1000.0 nM
[15] = test system: Epidermal growth factor receptor (Homo sapiens), P00533 [UNDEFINED MUTATION]; conditions: Compound concentration 1000.0 nM
[16] = molecular target: Atypical kinase COQ8B, mitochondrial (Homo sapiens) (UniProt Q96D53); conditions: Compound concentration 1000.0 nM
[17] = molecular target: SRSF protein kinase 1 (Homo sapiens) (UniProt Q96SB4); conditions: Compound concentration 1000.0 nM
[18] = molecular target: Kappa-type opioid receptor (Homo sapiens) (UniProt P41145); conditions: Compound concentration 10.0 uM
[19] = molecular target: Serine/threonine-protein kinase 24 (Homo sapiens) (UniProt Q9Y6E0); conditions: Compound concentration 1000.0 nM
[20] = molecular target: NUAK family SNF1-like kinase 1 (Homo sapiens) (UniProt O60285); conditions: Compound concentration 1000.0 nM
[21] = molecular target: cGMP-dependent protein kinase 1 (Homo sapiens) (UniProt Q13976); conditions: Compound concentration 1000.0 nM
[22] = molecular target: Non-receptor tyrosine-protein kinase TYK2 (Homo sapiens) (UniProt P29597); conditions: Compound concentration 1000.0 nM
[23] = molecular target: Rho-associated protein kinase 2 (Homo sapiens) (UniProt O75116); conditions: Compound concentration 1000.0 nM
[24] = molecular target: Cyclin-dependent kinase 4 (Homo sapiens) (UniProt P11802); conditions: Compound concentration 1000.0 nM
[25] = molecular target: Receptor tyrosine-protein kinase erbB-3 (Homo sapiens) (UniProt P21860); conditions: Compound concentration 1000.0 nM
[26] = molecular target: Alpha-1D adrenergic receptor (Homo sapiens) (UniProt P25100); conditions: Compound concentration 10.0 uM
[27] = molecular target: Dual specificity protein kinase CLK4 (Homo sapiens) (UniProt Q9HAZ1); conditions: Compound concentration 1000.0 nM
[28] = molecular target: Serine/threonine-protein kinase Sgk2 (Homo sapiens) (UniProt Q9HBY8); conditions: Compound concentration 1000.0 nM
[29] = molecular target: Wee1-like protein kinase 2 (Homo sapiens) (UniProt P0C1S8); conditions: Compound concentration 1000.0 nM
[30] = molecular target: Phosphatidylinositol 4-phosphate 5-kinase type-1 gamma (Homo sapiens) (UniProt O60331); conditions: Compound concentration 1000.0 nM
[31] = molecular target: Discoidin domain-containing receptor 2 (Homo sapiens) (UniProt Q16832); conditions: Compound concentration 1000.0 nM
[32] = molecular target: Muscarinic acetylcholine receptor M1 (Homo sapiens) (UniProt P11229); conditions: Compound concentration 10.0 uM
[33] = molecular target: Tyrosine-protein kinase HCK (Homo sapiens) (UniProt P08631); conditions: Compound concentration 1000.0 nM
[34] = molecular target: Mitogen-activated protein kinase 3 (Homo sapiens) (UniProt P27361); conditions: Compound concentration 1000.0 nM
[35] = molecular target: Alpha-1A adrenergic receptor (Homo sapiens) (UniProt P35348); conditions: Compound concentration 10.0 uM
[36] = molecular target: Tyrosine-protein kinase Lyn (Homo sapiens) (UniProt P07948); conditions: Compound concentration 1000.0 nM
[37] = molecular target: Mast/stem cell growth factor receptor Kit (Homo sapiens) (UniProt P10721); conditions: Compound concentration 1000.0 nM
[38] = molecular target: Dual specificity mitogen-activated protein kinase kinase 1 (Homo sapiens) (UniProt Q02750); conditions: Compound concentration 1000.0 nM
[39] = molecular target: Serine/threonine-protein kinase Nek9 (Homo sapiens) (UniProt Q8TD19); conditions: Compound concentration 1000.0 nM
[40] = molecular target: Serine/threonine-protein kinase N1 (Homo sapiens) (UniProt Q16512); conditions: Compound concentration 1000.0 nM
[41] = molecular target: Beta-3 adrenergic receptor (Homo sapiens) (UniProt P13945); conditions: Compound concentration 10.0 uM
[42] = molecular target: Tyrosine-protein kinase JAK1 (Homo sapiens) (UniProt P23458); conditions: Compound concentration 1000.0 nM
[43] = molecular target: Mitogen-activated protein kinase 6 (Homo sapiens) (UniProt Q16659); conditions: Compound concentration 1000.0 nM
[44] = molecular target: Serine/threonine-protein kinase BRSK2 (Homo sapiens) (UniProt Q8IWQ3); conditions: Compound concentration 1000.0 nM
[45] = molecular target: Inhibitor of nuclear factor kappa-B kinase subunit beta (Homo sapiens) (UniProt O14920); conditions: Compound concentration 1000.0 nM

Sequence of NUAK family SNF1-like kinase 1 (Homo sapiens) (O60285 whole entry): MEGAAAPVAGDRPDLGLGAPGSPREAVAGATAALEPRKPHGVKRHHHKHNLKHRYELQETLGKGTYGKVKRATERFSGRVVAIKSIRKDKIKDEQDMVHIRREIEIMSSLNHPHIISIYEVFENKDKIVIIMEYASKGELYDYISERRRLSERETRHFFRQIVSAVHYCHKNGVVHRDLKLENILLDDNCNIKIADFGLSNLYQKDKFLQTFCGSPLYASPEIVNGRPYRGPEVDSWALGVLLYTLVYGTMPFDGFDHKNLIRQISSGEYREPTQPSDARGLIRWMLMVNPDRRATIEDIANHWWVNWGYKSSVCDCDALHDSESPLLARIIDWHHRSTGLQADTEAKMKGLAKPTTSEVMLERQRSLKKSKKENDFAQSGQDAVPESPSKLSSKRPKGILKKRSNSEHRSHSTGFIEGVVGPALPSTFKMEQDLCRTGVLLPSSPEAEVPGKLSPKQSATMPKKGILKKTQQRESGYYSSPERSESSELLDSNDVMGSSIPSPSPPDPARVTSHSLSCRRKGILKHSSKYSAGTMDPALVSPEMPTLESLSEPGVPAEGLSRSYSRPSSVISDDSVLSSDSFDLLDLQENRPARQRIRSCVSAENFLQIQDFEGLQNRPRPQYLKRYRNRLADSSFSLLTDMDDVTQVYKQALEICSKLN
Sequence of Serine/threonine-protein kinase N1 (Homo sapiens) (Q16512 2-942 limits assumed): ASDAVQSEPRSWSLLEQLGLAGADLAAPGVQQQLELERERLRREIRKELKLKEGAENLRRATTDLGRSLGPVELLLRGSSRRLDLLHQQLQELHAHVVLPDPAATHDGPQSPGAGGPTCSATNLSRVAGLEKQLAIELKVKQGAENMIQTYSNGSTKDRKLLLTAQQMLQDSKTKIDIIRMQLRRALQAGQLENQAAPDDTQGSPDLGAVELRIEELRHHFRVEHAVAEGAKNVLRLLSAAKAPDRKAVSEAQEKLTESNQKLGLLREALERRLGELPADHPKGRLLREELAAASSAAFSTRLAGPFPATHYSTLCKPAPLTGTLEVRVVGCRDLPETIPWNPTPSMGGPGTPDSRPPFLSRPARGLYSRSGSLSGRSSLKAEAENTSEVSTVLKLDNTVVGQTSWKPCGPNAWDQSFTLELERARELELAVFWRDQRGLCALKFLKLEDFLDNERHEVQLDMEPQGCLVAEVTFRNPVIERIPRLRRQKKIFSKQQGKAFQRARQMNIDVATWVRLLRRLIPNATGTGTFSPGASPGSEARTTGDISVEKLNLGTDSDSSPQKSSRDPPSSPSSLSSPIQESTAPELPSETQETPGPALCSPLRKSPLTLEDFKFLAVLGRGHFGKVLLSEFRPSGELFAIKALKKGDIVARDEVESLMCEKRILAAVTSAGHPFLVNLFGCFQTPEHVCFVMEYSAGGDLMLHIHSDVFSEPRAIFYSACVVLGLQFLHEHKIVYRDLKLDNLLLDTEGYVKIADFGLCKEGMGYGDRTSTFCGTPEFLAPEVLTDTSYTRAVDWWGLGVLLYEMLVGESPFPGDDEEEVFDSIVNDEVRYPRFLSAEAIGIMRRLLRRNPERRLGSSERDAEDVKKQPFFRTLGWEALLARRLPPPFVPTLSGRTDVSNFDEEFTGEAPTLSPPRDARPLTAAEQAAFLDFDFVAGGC
Sequence of Serine/threonine-protein kinase B-raf (Homo sapiens), P15056 [V600E] (P15056 whole entry V600E): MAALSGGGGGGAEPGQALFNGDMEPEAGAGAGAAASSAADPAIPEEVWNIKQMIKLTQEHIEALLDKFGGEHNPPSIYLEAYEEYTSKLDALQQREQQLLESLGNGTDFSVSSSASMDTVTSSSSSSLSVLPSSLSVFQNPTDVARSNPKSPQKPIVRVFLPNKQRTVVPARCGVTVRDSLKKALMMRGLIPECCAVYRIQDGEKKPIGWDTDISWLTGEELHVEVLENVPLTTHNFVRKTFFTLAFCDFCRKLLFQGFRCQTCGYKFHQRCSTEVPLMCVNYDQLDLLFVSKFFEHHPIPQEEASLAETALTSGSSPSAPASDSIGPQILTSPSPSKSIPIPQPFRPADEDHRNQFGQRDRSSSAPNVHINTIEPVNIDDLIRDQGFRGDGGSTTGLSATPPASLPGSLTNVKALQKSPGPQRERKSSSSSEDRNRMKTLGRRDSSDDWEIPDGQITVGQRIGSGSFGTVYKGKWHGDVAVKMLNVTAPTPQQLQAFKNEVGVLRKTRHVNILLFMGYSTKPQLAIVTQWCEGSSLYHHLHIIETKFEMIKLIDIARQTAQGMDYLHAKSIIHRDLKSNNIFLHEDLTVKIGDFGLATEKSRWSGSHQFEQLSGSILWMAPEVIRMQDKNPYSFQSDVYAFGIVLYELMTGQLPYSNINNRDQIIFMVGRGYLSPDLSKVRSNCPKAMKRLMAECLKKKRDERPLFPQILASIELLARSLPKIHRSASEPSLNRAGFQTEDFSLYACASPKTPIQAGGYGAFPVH
Sequence of SRSF protein kinase 1 (Homo sapiens) (Q96SB4 whole entry): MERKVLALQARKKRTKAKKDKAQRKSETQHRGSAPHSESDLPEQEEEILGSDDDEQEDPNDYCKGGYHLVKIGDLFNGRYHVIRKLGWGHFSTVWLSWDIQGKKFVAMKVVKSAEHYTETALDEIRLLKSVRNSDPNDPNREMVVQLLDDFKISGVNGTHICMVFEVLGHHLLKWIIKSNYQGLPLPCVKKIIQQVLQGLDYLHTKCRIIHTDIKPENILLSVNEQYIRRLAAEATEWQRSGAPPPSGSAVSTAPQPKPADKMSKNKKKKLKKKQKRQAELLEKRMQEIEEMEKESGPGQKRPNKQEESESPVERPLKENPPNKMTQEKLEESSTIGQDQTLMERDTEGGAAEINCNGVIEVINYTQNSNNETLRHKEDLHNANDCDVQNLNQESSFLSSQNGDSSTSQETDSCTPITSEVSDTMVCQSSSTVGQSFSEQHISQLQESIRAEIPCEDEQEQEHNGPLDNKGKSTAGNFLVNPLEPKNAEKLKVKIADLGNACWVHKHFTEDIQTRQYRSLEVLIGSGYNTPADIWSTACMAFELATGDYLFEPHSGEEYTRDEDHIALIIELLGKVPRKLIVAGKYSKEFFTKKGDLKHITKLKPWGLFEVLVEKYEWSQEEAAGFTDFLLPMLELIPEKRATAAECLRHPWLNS
Sequence of Protein kinase C delta type (Homo sapiens) (Q05655 whole entry, looked up): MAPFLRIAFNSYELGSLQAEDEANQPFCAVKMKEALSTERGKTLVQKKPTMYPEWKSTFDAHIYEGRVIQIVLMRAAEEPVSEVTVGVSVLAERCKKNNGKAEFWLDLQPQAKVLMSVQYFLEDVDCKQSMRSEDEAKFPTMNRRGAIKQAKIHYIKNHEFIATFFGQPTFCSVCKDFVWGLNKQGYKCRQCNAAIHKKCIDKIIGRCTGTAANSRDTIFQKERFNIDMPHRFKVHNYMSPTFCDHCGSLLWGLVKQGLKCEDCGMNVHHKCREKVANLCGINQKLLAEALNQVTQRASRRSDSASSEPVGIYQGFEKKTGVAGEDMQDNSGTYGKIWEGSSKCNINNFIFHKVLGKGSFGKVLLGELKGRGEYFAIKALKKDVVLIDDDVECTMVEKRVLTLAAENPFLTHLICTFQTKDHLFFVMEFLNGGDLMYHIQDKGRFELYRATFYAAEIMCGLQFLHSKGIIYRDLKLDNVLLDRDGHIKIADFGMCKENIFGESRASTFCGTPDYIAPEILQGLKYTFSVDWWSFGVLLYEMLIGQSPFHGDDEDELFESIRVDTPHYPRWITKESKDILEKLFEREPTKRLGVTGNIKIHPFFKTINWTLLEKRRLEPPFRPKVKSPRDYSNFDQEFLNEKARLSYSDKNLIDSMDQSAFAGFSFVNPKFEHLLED
Sequence of Serine/threonine-protein kinase BRSK2 (Homo sapiens) (Q8IWQ3 whole entry): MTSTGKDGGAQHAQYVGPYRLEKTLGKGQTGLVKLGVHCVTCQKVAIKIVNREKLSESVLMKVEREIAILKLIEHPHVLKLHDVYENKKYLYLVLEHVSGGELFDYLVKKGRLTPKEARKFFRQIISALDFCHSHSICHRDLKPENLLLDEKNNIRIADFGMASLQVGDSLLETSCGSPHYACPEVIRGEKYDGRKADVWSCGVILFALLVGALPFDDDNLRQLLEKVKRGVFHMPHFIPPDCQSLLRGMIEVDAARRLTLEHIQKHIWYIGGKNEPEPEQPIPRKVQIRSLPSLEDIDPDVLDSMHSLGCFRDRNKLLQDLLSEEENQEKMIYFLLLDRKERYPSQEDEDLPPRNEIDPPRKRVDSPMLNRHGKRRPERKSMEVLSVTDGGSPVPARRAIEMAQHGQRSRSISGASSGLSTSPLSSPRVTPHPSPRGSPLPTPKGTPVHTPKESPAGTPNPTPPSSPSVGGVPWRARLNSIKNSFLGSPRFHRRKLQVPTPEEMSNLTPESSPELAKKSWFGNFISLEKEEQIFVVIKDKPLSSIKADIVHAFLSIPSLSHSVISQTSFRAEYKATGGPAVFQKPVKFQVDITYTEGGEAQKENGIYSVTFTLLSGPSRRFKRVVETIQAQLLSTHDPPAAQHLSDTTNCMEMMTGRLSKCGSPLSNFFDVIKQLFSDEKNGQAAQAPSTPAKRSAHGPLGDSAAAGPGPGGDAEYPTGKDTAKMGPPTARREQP
Sequence of Phosphatidylinositol 5-phosphate 4-kinase type-2 gamma (Homo sapiens) (Q8TBX8 whole entry): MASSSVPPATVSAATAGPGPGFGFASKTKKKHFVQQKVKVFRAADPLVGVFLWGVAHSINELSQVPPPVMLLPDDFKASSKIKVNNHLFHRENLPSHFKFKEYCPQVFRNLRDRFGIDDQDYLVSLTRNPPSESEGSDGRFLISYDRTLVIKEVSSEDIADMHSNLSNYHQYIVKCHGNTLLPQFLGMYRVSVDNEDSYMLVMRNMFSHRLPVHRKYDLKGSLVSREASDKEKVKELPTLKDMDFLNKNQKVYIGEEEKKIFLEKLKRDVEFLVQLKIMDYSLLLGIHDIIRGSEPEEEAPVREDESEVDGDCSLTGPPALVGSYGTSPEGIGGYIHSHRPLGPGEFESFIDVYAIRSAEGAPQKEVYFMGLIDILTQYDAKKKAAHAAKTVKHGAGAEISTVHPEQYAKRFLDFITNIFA

In the case of `COc1cccc(CNC(=O)c2nc3scc(COCc4ccc(C(=O)O)cc4)c3c(=O)[nH]2)c1` [T-26c], the residual activity [1] is reported as 93.4%, the residual activity [2] is reported as 79.8% and the residual activity [3] is reported as 77.5%. It also gave a residual activity [4] of 76.7%, a residual activity [5] of 100% and an inhibition [6] of -0.179%. It also gave a residual activity [7] of 96.4%, a residual activity [8] of 87.7% and a residual activity [9] of 72.5%. The residual activity [10] was 66.1%, the residual activity [11] was 76.4% and the residual activity [12] was 100%. For the same compound, the residual activity [13] was 100%, the residual activity [14] was 74.7% and the residual activity [15] was 66.1%. The residual activity [16] was 93.8%, the residual activity [17] was 100% and the inhibition [18] was 8.18%. The residual activity [19] was 100%, the residual activity [20] was 86.6% and the residual activity [21] was 100%. For the same compound, the residual activity [22] was 95%, the residual activity [23] was 69.1% and the residual activity [24] was 91.1%. The residual activity [25] was 89.4%, the inhibition [26] was -5.4% and the residual activity [27] was 94.4%. It also gave a residual activity [28] of 84.9%, a residual activity [29] of 96.9% and a residual activity [30] of 63.7%. It also gave a residual activity [31] of 98.9%, an inhibition [32] of 53.4% and a residual activity [33] of 79.7%. For the same compound, the residual activity [34] was 100%, the inhibition [35] was -1.51% and the residual activity [36] was 93.7%. For the same compound, the residual activity [37] was 81.3%, the residual activity [38] was 73.5% and the residual activity [39] was 98.2%. It also gave a residual activity [40] of 100%, an inhibition [41] of 7.44% and a residual activity [42] of 93.9%. For the same compound, the residual activity [43] was 99.9%, the residual activity [44] was 77.3% and the residual activity [45] was 73.2%.

— ChEMBL document CHEMBL4507300 (2021)
